Assay results: patent publication US10617622B2, “Hair restoration and/or hair growth promoting composition containing soyasaponin” (AMOREPACIFIC CORPORATION, priority 2015, dated 2020)

Tests used:
[1] = tested on: dermal papilla cells (DPC); experiment: Expression of hair growth factor VEGF in dermal papilla cells (VEGF ELISA); format: cell-based, human; conditions: 20 ppm, 24 hours
Description: In order to evaluate the degree of expression of vascular endothelial growth factor (VEGF) which is a growth factor necessary for transition of hair into the anagen phase as a growth factor necessary for angiogenesis by soyasaponin Aa, an in vitro system was applied to treat the soyasaponin Aa, and the activity thereof was evaluated. For the experiment, 4×10^5 dermal papilla cells (DPC) (P.11) of a person was seeded in a 12-well plate and cultured in DMEM (Dulbecco's modified Eagle's medium; GibcoBRL, Gaithersburg, Md., USA) containing 10% FBS (fetal bovine serum) overnight. After the culture, the cells were treated with soyasaponin Aa at 20 ppm. DMSO was used as a negative control. After 24 hours, the mixing solution with treated soyasaponin Aa was collected, and the degree of VEGF expression by the soyasaponin Aa was confirmed using VEGF ELISA (Vascular endothelial growth factor Enzyme-Linked Immunosorbent Assay; R&D biosystems).

[2] = tested on: human dermal papilla cell line; experiment: Proliferation effect on hair follicle dermal papilla cells (WST-1 kit); format: cell-based; conditions: for hDPc proliferation (%): 24 hours after treatment, control = 100
Description: First, in the present invention, a human dermal papilla cell line was used (obtained from Prof. Kwan Oh Sang of dermatology in Seoul National University Hospital). The cell line was cultured for 24 hours in an incubator maintained at 5% CO2, 37° C. using DMEM (Dulbecco's modified Eagle's medium; Gibco BRL, Gaithersburg, Md., USA) containing 10% FBS, and then independently treated with soyasaponin Aa at 1 ppm, 10 ppm, and 20 ppm. DMSO was used as a negative control. Cell proliferation (%) was measured using a WST-1 kit (Roche) 24 hours after the treatment with the test materials.

[3] = tested on: human hair follicle organ; experiment: Hair growth promoting effect using human hair follicle organ culture; format: cell-based; conditions: for Average growth length (mm): 8 days after the treatment, hair follicles of a person
Description: The hair follicle organ was isolated from the scalp tissue of the occipital region of a person one at a time, and cultured in William's E medium (containing L-glutamine (2 mM), insulin (10 μg/ml), hydrocortisone (40 ng/ml), antibiotics (1%) antimycotic (1%)).
The hair follicles grown on the third day after culturing were selected and cut into 3 mm. As for the selected hair follicle tissues, those without drug treatment were used as a control group, and the hair follicle tissues were each treated with soyasaponin Aa at 1 ppm, 5 ppm, and 10 ppm. Then, the hair length was measured 8 days after the treatment.

Compound: CC(=O)O[C@@H]1[C@@H](OC(C)=O)[C@H](O[C@@H]2[C@@H](O)[C@H](O[C@@H]3[C@H](O)C(C)(C)C[C@H]4C5=CC[C@@H]6[C@@]7(C)CC[C@H](O[C@@H]8O[C@H](C(=O)O)[C@@H](O)[C@H](O)[C@H]8O[C@@H]8O[C@H](CO)[C@H](O)[C@H](O)[C@H]8O[C@@H]8O[C@H](CO)[C@@H](O)[C@H](O)[C@H]8O)[C@](C)(CO)[C@@H]7CC[C@@]6(C)[C@]5(C)CC[C@@]34C)OC[C@@H]2O)OC[C@H]1OC(C)=O [Soyasaponin Aa, soyasaponin Aa]
- increase of VEGF expression compared to the control group ([1]; dermal papilla cells): ≥ 4 times
- VEGF (ng/ml) in culture medium ([1]; dermal papilla cells of a person, DMSO negative control): 16.7 ng/mL
- hDPc proliferation (%) ([2]; 1 ppm): 119%
- hDPc proliferation (%) ([2]; 10 ppm): 145%
- rate of increase in dermal papilla cell proliferation compared with the control group ([2]; 20 ppm): ≥ 1.7 times
- hDPc proliferation (%) ([2]; 20 ppm): 172%
- Average growth length (mm) ([3]; 1 ppm): 1.71 mm
- Average growth length (mm) ([3]; 5 ppm): 2.05 mm
- hair length growth effect compared to the control group ([3]; 10 ppm): 1.5 times
- Average growth length (mm) ([3]; 10 ppm): 2.46 mm
